Each structure is given as a SMILES string. Where two headings read alike, the source gives them in different places. Where a SMILES comes first, the peptide text is derived from it. Where only a bound is given, the exact number is not on record here.

The target of one data set is T1, human GLP-2 receptor (Homo sapiens, UniProt O95838, D470N).
T1 construct: expressed in transfected cells
T1 sequence (O95838 1-553 D470N): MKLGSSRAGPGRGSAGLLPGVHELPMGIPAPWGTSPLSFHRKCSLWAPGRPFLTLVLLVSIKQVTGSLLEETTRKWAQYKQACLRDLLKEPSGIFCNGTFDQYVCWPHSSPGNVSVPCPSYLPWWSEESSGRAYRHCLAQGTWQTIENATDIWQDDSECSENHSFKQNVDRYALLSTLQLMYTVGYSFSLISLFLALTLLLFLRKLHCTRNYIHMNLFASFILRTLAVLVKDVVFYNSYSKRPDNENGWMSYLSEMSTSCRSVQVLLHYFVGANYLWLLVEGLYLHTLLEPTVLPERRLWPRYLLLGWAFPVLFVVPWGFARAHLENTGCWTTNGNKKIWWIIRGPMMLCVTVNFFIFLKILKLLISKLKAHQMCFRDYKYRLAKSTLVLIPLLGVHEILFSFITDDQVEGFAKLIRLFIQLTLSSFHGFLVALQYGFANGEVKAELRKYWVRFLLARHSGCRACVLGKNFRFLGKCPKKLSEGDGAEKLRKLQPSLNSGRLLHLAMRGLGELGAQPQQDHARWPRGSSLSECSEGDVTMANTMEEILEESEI
Briefly: GLP-2 receptor potency assay (cAMP ALPHASCREEN, HEK293 cells stably expressing GLP-2 R). It is filed as cell-based. Conditions: cAMP response, HEK293 cells expressing human GLP-2 R; read-out: EC50 GLP-2. A digest of the protocol:
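HEK293 clones stably transfected with the human GLP-2 receptor, selected with G418, were used. Intracellular cAMP was quantified by AlphaScreen. Responses were normalised to positive and vehicle controls, and EC50 and maximal response were taken from concentration-response curves.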

Data set [1] deals with Normal chow-fed C57BL/6J male mice. The experiment in a line: Effect on fasting glucose and intestinal weight in normal mice. It is filed as in vivo. To be noted: for Small intestinal wet weight: 100 nmol/kg s.c. once daily for 4 days, sacrificed 24 hours after final dosing; for Fasting blood glucose: 100 nmol/kg s.c., day 0 after a single injection, fasted mice. Here is the method:
Normal chow-fed C57BL/6J male mice were used. The mice were kept in standard housing conditions, light-, temperature-, and humidity-controlled room (12:12 h light-dark cycle, with lights on at 06.00-18.00 h; 20-22° C.; 50-80% relative humidity). Each dosing group consisted of 6 animals. Mice were dosed once daily with 100 nmol/kg with the test compounds or vehicle for 4 days via subcutaneous administration.
On day 0 mice were fasted and blood glucose levels measured after a single s.c. injection with peptides. Animals were sacrificed 24 hours after final dosing on day 3, and small intestinal wet weights were measured.

The target of another data set is T2, human GLP-1 receptor (Homo sapiens, UniProt P43220).
T2 construct: expressed in transfected cells
T2 sequence (P43220 24-463): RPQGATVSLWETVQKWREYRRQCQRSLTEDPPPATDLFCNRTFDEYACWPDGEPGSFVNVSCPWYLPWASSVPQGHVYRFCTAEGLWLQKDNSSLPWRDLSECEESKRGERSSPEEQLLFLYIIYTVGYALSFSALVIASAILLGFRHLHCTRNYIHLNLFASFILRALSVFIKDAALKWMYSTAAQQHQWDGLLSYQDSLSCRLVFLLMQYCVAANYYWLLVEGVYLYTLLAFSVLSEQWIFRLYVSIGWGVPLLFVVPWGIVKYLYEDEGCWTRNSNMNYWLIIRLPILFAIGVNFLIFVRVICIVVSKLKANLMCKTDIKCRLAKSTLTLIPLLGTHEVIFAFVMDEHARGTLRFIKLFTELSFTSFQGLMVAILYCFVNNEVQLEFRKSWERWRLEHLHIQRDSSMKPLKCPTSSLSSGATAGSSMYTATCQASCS
The experiment in a line: GLP-1 receptor potency assay (cAMP ALPHASCREEN, HEK293 cells stably expressing GLP-1 R). It is filed as cell-based. Conditions: cAMP response, HEK293 cells expressing human GLP-1 R. The method, boiled down:
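Clonal HEK293 line stably transfected with human GLP-1R (G418-selected) was treated with test compounds and the cAMP response quantified by ALPHASCREEN. Signals were normalized to positive control and vehicle, with EC50 and maximal response taken from concentration-response curves.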

A short description of data set [2]: Chemical stability (RP-HPLC normalized purity after incubation at 40° C.). The format is physicochemical. To be noted: 14-day incubation, 0.2 mg/ml, normalized purity (area-%). The method, boiled down: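 Peptide at 0.2 mg/ml final in water adjusted to pH 6, 7, 7.5 or 9, incubated at 40° C for 14 days. Purity measured as main-peak area-% by C18 RP-HPLC (acetonitrile/TFA/water gradient, UV 220 nm) and normalized to T=0 set at 100 for each pH.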

Data set [3] can be described thus: Solubility assessment (turbidity absorbance at 325 nm). The format is physicochemical. A digest of the protocol: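 Peptide stock at 2 mg/ml in water at pH 2.5 diluted 1:1 into 100 mM acetate (pH 4.0, 5.0), histidine (pH 6.0, 7.0) or phosphate (pH 6.0, 7.0, 7.5) buffer. Absorbance at 280 and 325 nm read at ambient temperature (typically 25 °C), single samples (n=1).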

Consider `CC[C@H](C)[C@H](NC(=O)[C@H](Cc1ccccc1)NC(=O)[C@H](CC(=O)O)NC(=O)[C@H](CCCNC(=N)N)NC(=O)[C@H](C)NC(=O)[C@H](C)NC(=O)[C@H](CCCCNC(=O)CC[C@H](NC(=O)CCCCCCCCCCCCCCCCC(=O)O)C(=O)O)NC(=O)CNC(=O)[C@H](CC(=O)O)NC(=O)[C@H](CC(C)C)NC(=O)[C@@H](NC(=O)[C@@H](NC(=O)[C@H](C)NC(=O)[C@H](CC(C)C)NC(=O)[C@H](CCC(=O)O)NC(=O)[C@H](CO)NC(=O)[C@@H](NC(=O)[C@H](Cc1ccccc1)NC(=O)[C@@H](NC(=O)CNC(=O)[C@H](CCC(=O)O)NC(=O)C(C)(C)NC(=O)[C@@H](N)Cc1c[nH]cn1)[C@@H](C)O)[C@@H](C)O)[C@@H](C)O)[C@@H](C)CC)C(=O)N[C@@H](C)C(=O)N[C@@H](Cc1c[nH]c2ccccc12)C(=O)N[C@@H](CC(C)C)C(=O)N[C@H](C(=O)N[C@@H](CCC(=O)O)C(=O)N[C@@H](Cc1c[nH]cn1)C(=O)N[C@@H](CCCCN)C(=O)N[C@H](C(=O)N[C@H](C(=O)N[C@@H](CC(=O)O)C(=O)O)[C@@H](C)O)[C@@H](C)CC)[C@@H](C)CC` [Compound 9] (HELM PEPTIDE1{H.[Aib].E.G.T.F.T.S.E.L.A.T.I.L.D.G.K.A.A.R.D.F.I.A.W.L.I.E.H.K.I.T.D}|PEPTIDE2{[O=C(O)CCCCCCCCCCCCCCCCC(=O)[*:2]].[gGlu]}$PEPTIDE1,PEPTIDE2,17:R3-2:R2$$$V2.0), for which the EC50 at human GLP-2 receptor amounted to 0.056 nM. In data set [1], the “Small intestinal wet weight” value was 1.11 g and the Fasting blood glucose is 4.98 mM.

For the compound `CC[C@H](C)[C@H](NC(=O)[C@H](Cc1ccccc1)NC(=O)[C@H](CC(=O)O)NC(=O)[C@H](CCCNC(=N)N)NC(=O)[C@H](C)NC(=O)[C@H](C)NC(=O)[C@H](CCC(N)=O)NC(=O)[C@H](CCCCNC(=O)COCCOCCNC(=O)[C@H](CCCCN)NC(=O)[C@H](CCC(=O)O)NC(=O)[C@H](CCCCN)NC(=O)CC[C@H](NC(=O)CCCCCCCCCCCCCCCCCCC(=O)O)C(=O)O)NC(=O)[C@H](CC(=O)O)NC(=O)[C@H](CC(C)C)NC(=O)[C@@H](NC(=O)[C@@H](NC(=O)[C@H](C)NC(=O)[C@H](CC(C)C)NC(=O)[C@H](CCC(=O)O)NC(=O)[C@H](CO)NC(=O)[C@H](CO)NC(=O)[C@H](Cc1ccccc1)NC(=O)[C@@H](NC(=O)CNC(=O)[C@H](CCC(=O)O)NC(=O)C(C)(C)NC(=O)[C@@H](N)Cc1c[nH]cn1)[C@@H](C)O)[C@@H](C)O)[C@@H](C)CC)C(=O)N[C@@H](C)C(=O)N[C@@H](Cc1c[nH]c2ccccc12)C(=O)N[C@@H](CC(C)C)C(=O)N[C@H](C(=O)N[C@@H](CCC(=O)O)C(=O)N[C@@H](Cc1c[nH]cn1)C(=O)N[C@@H](CCCCN)C(=O)N[C@H](C(=O)N[C@H](C(=O)N[C@@H](CC(=O)O)C(=O)O)[C@@H](C)O)[C@@H](C)CC)[C@@H](C)CC` [Compound 50] (HELM PEPTIDE1{H.[Aib].E.G.T.F.S.S.E.L.A.T.I.L.D.K.Q.A.A.R.D.F.I.A.W.L.I.E.H.K.I.T.D}|PEPTIDE2{[O=C(O)CCCCCCCCCCCCCCCCCCC(=O)[*:2]].[gGlu].K.E.K.[O=C(COCCOCCN[*:1])[*:2]]}$PEPTIDE1,PEPTIDE2,16:R3-6:R2$$$V2.0), at human GLP-2 receptor, the EC50 worked out at 0.056 nM. In addition, in data set [1], the “Small intestinal wet weight” value was found to be 1.43 g and the Fasting blood glucose worked out at 5.57 mM. Further, the midpoint of the response at human GLP-1 receptor, the EC50, lay at 0.31 nM.

`CC[C@H](C)[C@H](NC(=O)[C@H](Cc1ccccc1)NC(=O)[C@H](CC(=O)O)NC(=O)[C@H](CCCNC(=N)N)NC(=O)[C@H](C)NC(=O)[C@H](C)NC(=O)[C@H](CCC(N)=O)NC(=O)[C@H](CCCCNC(=O)CC[C@H](NC(=O)CCCCCCCCCCCCCCCCC(=O)O)C(=O)O)NC(=O)[C@H](CC(=O)O)NC(=O)[C@H](CC(C)C)NC(=O)[C@@H](NC(=O)[C@@H](NC(=O)[C@H](C)NC(=O)[C@H](CC(C)C)NC(=O)[C@H](CCC(=O)O)NC(=O)[C@H](CO)NC(=O)[C@@H](NC(=O)[C@H](Cc1ccccc1)NC(=O)[C@H](CO)NC(=O)CNC(=O)[C@H](CCC(=O)O)NC(=O)C(C)(C)NC(=O)[C@@H](N)Cc1c[nH]cn1)[C@@H](C)O)[C@@H](C)O)[C@@H](C)CC)C(=O)N[C@@H](C)C(=O)N[C@@H](Cc1c[nH]c2ccccc12)C(=O)N[C@@H](CC(C)C)C(=O)N[C@H](C(=O)N[C@@H](CCC(N)=O)C(=O)N[C@@H](Cc1c[nH]cn1)C(=O)N[C@@H](CCCCN)C(=O)N[C@H](C(=O)N[C@H](C(=O)N[C@@H](CC(=O)O)C(=O)O)[C@@H](C)O)[C@@H](C)CC)[C@@H](C)CC` [Compound 18] (HELM PEPTIDE1{H.[Aib].E.G.S.F.T.S.E.L.A.T.I.L.D.K.Q.A.A.R.D.F.I.A.W.L.I.Q.H.K.I.T.D}|PEPTIDE2{[O=C(O)CCCCCCCCCCCCCCCCC(=O)[*:2]].[gGlu]}$PEPTIDE1,PEPTIDE2,16:R3-2:R2$$$V2.0): the “pH 6 normalized stability” value in data set [2] (pH 6, 40° C.) is given as “A (>90% normalised stability)”. In addition, the “pH 7 normalized stability” value in data set [2] (pH 7, 40° C.) is “A (>90% normalised stability)”. Also, the “Small intestinal wet weight” value in data set [1] amounted to 1.37 g. Moreover, the Fasting blood glucose in data set [1] came out at 5.26 mM. Moreover, the solubility is below 1000 µg/mL in data set [3] (100 mM acetate buffer pH 4.0, ambient temperature, read-out: Solubility Acetate buffer pH 4); below 1000 µg/mL in data set [3] (100 mM acetate buffer pH 5.0, ambient temperature, read-out: Solubility Acetate buffer pH 5); at least 1000 µg/mL in data set [3] (100 mM histidine buffer pH 6.0, ambient temperature, read-out: Solubility Histidine buffer pH 6); at least 1000 µg/mL in data set [3] (100 mM histidine buffer pH 7.0, ambient temperature, read-out: Solubility Histidine buffer pH 7); at least 1000 µg/mL in data set [3] (100 mM phosphate buffer pH 6.0, ambient temperature, read-out: Solubility Phosphate buffer pH 6); at least 1000 µg/mL in data set [3] (100 mM phosphate buffer pH 7.0, ambient temperature, read-out: Solubility Phosphate buffer pH 7). The solubility in data set [3] (100 mM phosphate buffer pH 7.5, ambient temperature, read-out: Solubility Phosphate buffer pH 7.5) was at least 1000 µg/mL.
